According to patent publication US9914750B2, “Synthetic peptides and peptide mimetics” (University of Louisville Research Foundation, priority 2007, dated 2018):
Entries after “also recorded” stand apart in the source; their conditions may differ. No end group written: not given here.

Experiments:
[1] = test system: sheep red blood cells; test: Hemagglutination assay; format: cell-based; conditions: PBS, absence of serum, 2 h
Protocol: FIG. 22: Hemagglutination of sheep red blood cells. RBCs were washed in PBS and incubated for 2 h in microtiter plates in PBS±5% fetal calf serum. Peptide concentrations were 83 μg/ml. The microtiter plate was imaged. Agglutinated red blood cells form a wide mat of cells, while non-agglutinated cells form a button shaped pellet.
Briefly, unmodified sheep erythrocytes (Cappel, M P Biomedicals, Irvine, Calif.) were washed in PBS and suspended at 1% in PBS. Diluted erythrocytes and 20 μg/ml of each peptide in PBS were mixed in polypropylene microtiter plates (120 μl per well) and incubated for 2 h at 35° C. The plates were imaged on a Kodak Image station.

[2] = test system: RAW 264.7 cells; test: Cell death assay, trypan blue; format: cell-based, mouse; conditions: 200 μg/ml, 24 h
Protocol: FIG. 21: RAW Cell Viability. RAW 264.7 cells were incubated with 200 μg/ml of PSP peptides for 24 h. At the end of the incubation period the cells were stained with trypan blue and photographed in the light microscope. No significant cell death was detected with any of the peptides.
The inventors have used three different assays for analysis of cytotoxicity in mammalian cells: trypan blue exclusion, […], and ATP production. Experiments have been performed with rat pituitary GH4C1 cells and mouse RAW 264.7 cells. The cells were incubated with PSP peptides for 24 h followed by staining with trypan blue to identify permeabilized and dead cells. […] Clear cytotoxicity was noted when the cells were incubated with LPS.
RAW 264.7 cells were incubated with 200 μg/ml of PSP peptides for 24 h. At the end of the incubation period the cells were stained with trypan blue and photographed in the light microscope. No significant cell death was detected with any of the peptides (FIG. 21).

[3] = test system: RAW 264.7 cells; test: Assay for inflammation: TNFα secretion with peptides alone (ELISA); format: cell-based, mouse
Protocol: FIGS. 15A and 15B. FIG. 15A. Inhibition of endotoxin-stimulated TNFα secretion. RAW 264.7 macrophage cells were stimulated with 100 ng/ml LPS in the presence or absence of the PSP-derived peptides GK7, KL11 or GL13 (200 μg/ml). Polymyxin B (PMX) was used as a positive control. Further controls consisted of peptides alone without LPS stimulation. TNFα secretion was analyzed by ELISA of the RAW culture medium. The data are from triplicate RAW culture dishes for each condition. *) different from LPS alone P<0.03, **) P<0.0002. FIG. 15B. Dose response curve for the inhibition of LPS-induced TNFα secretion by GL-13.
To determine if the PSP peptides cause an inflammatory response in RAW 264.7 cells, the cells were incubated with each peptide for 24 h and TNFα secretion was quantitated by ELISA.
The vaccine adjuvant monophosphoryl lipid A (MPLA) a low-toxicity derivative of LPS was used to stimulate RAW cells in the presence or absence of PSP peptides (200 μg/ml) or the anti-inflammatory peptide polymyxin B (PMX). Control samples were incubated with the peptides alone.

[4] = test system: C57BL/6 mice; test: LPS sepsis model, D-galactosamine sensitized mice; format: in vivo
Protocol: FIG. 18. GL-13 Protects Mice in an LPS Sepsis Model. C57BL/6 mice were sensitized with D-galactosamine and injected with 100 ng/mouse (50 μg/kg) of P. aeruginosa LPS that had been preincubated for 1 h RT with or without 100 μg/mouse of GL-13. Controls received LPS and 0.9% saline. […] The results are from two independent experiments.
C57BL/6 mice were sensitized with D-galactosamine and injected with 100 ng/mouse (50 μg/kg) of P. aeruginosa LPS that had been preincubated for 1 h RT with or without 100 μg/mouse of GL-13 (FIG. 18). Controls received LPS and 0.9% saline. […] The results are from two independent experiments.

[5] = preliminary results; mice I.P. injection

GQIINLKASLDLL-NH2 [GL13-NH2, GQIINLKASLDLL-(CONH2)]
hemagglutination (words) [1]: caused passive hemagglutination | hemagglutination (words) ([1]; listed as GL-13-NH2): caused hemagglutination | cell death of RAW 264.7 macrophages, trypan blue [2]: did not stimulate TNFα secretion or cause macrophage cell death; also recorded: did not cause cell death; also recorded: not cytotoxic to macrophages | TNFα secretion with peptide alone [3]: did not stimulate TNFα secretion | lethality after intra-peritoneal injection [4]: did not cause lethality | toxicity [5]: low toxicity
